Laboratory results as given in US11207301B2, “Sphingosine 1 phosphate receptor agonists for neuroprotection” (RECEPTOS LLC, priority 2017, dated 2021).

Tests used:
Recombinant human MAO-B = target: T1, Recombinant human MAO-B (Homo sapiens, UniProt P27338); assay: MAO-B inhibition, conversion of kynuramine to 4-hydroxyquinoline; assay type: biochemical
T1 construct: purchased Sigma-Aldrich M7441; host or cells: baculovirus infected insect cells
T1 sequence (P27338 1-520): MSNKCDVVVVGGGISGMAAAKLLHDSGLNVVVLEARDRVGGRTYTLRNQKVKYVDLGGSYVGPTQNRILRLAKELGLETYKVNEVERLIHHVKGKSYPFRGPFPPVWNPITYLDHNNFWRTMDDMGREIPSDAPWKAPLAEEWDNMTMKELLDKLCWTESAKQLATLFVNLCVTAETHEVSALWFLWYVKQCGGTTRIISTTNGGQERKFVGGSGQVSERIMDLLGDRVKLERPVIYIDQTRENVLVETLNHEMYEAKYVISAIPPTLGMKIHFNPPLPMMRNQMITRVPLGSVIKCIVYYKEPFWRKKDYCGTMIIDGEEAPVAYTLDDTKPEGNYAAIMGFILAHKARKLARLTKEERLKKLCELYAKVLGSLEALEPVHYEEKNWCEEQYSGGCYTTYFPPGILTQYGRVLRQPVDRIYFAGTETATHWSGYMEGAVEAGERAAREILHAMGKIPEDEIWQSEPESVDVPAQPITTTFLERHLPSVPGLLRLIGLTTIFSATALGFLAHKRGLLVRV
Method: The effect of a S1P receptoragonist on MAO-B activity can be assessed by measuring the inhibition of conversion of substrate kynuramine to 4-hydroxyquinoline as described in Example 4.
Compound 1 and Compound 2-S were evaluated for their ability to inhibit MAO-A and MAO-B. Inhibition of the conversion of kynuramine, a substrate for MAO-A and MAO-B, to 4-hydroxyquinoline was used to assess the inhibitory potential of Compound 1 and Compound 2-S. Recombinant human MAO-A (product number M7316) and MAO-B (product number M7441) expressed in baculovirus infected insect cells were obtained from Sigma-Aldrich, Saint Louis, Mo. USA were used as a source of purified MAOs.
Recombinant MAO-A (0.01 mg/mL, final concentrations) and MAO-B (0.02 mg/mL, final concentration) were diluted to desired concentrations in 100 mM potassium phosphate buffer (pH 7.4) containing 5 mM MgCl2. The diluted protein fractions were preincubated with various concentrations of each test compound at 37° C. for 2 min. The concentrations used were 100, 33, 10, 3.3, 1.0, 0.33 μM and acetonitrile/DMSO as vehicle control for MAO-A and 1.0, 0.3, 0.1, 0.03, 0.01, 0.003 μM and acetonitrile/DMSO as vehicle control for MAO-B. The reaction was started by addition of kynuramine to the incubation mixture. The final concentration of kynuramine was 40 μM for MAO-A and 25 μM for MAO-B. The total incubation volume was 0.250 mL. This concentration was selected to be close to the Km values of MAO-A (Km 42 μM) and MAO-B (Km 26 μM). After 10 min of incubation, aliquots (100 μL) of the reaction mixture were taken and added to 200 μL acetonitrile containing 0.5 μM IS (acetaminophen). The reaction product, 4-hydroxyquinoline was analyzed by LC-MS/MS as described below.
MS characterization and detection of kynuramine and 4-hydroxyquinoline was performed using ABI 4000 Sciex QTrap mass spectrometer utilizing a Turbo Spray. The mass spectrometer was controlled by Analyst v1.6.2. The ESI was operated in a positive ion mode and the experimental parameters were set as follows: ion spray voltage, 2000; source temperature, 550° C.; curtain gas, 20; collision gas, medium ion source gas 1, 55; ion source gas 2, 50. […]
The gradient system was used to separate the analytes with a flow rate of 0.5 ml/min using mobile phase A, water containing 0.1% formic acid and mobile phase B, acetonitrile containing 0.1% formic acid. […] The analytes were monitored using multiple reaction monitoring and the ion transitions (Q1/Q3) were as follows: 4-hydroxyquinoline 146/104 (collision energy, CE was 27; declustering potential, DP, 50, and IS (acetaminophen), 152/110 (collision energy, CE was 27; declustering potential, DP, 50). All data were analyzed using AB Sciex Analyst v1.6.2 software.

[1] = tested on: experimental autoimmune encephalomyelitis (EAE)-induced mouse model of Multiple Sclerosis (MS); assay: Experimental autoimmune encephalomyelitis (EAE)-induced mouse model of multiple sclerosis, oral ozanimod; assay type: in vivo, C57BL/6 mice; conditions: EAE mice
Text: (§1) In one embodiment, the S1P receptor agonist provides therapeutic benefit in the context of relapsing-remitting multiple sclerosis (RRMS), by down-modulating S1P receptor and resulting in retention of autoreactive lymphocytes in secondary lymphoid organs. As set forth in greater detail below, ozanimod activity on immune cell subsets was examined in the experimental autoimmune encephalomyelitis (EAE)-induced mouse model of Multiple Sclerosis (MS). C57BL/6 mice were immunized with MOG35-55 and pertussis toxin to initiate immune cell activation, migration to the spinal cord and neurodegeneration. Animals were treated with oral ozanimod either semi-therapeutically or therapeutically to investigate the impact on peripheral immune cell expansion and migration into the spinal cord. The plasma biomarker of CNS injury, neurofilament light (NfL), was measured at study termination.
as §1, with “Ozanimod” for “In one embodiment, the S1P receptor agonist provides therapeutic benefit in the context of relapsing-remitting multiple sclerosis (RRMS), by down-modulating S1P receptor and resulting in retention of autoreactive lymphocytes in secondary lymphoid organs. As set forth in greater detail below, ozanimod”

[2] = tested on: primary rodent astrocytes; assay: Primary rodent astrocytes in vitro, resting and LPS-activated; assay type: cell-based
Method: In addition, the effects of ozanimod on the CNS were examined in vivo using the cuprizone-induced mouse model of demyelination and in vitro in primary rodent astrocytes. Efficacy of ozanimod or compound (2-R) was examined in the cuprizone-induced mouse model of neuroprotection. C57BL/6 mice were treated with cuprizone (0.3% weight/weight orally) and rapamycin (10 mg/kg intraperitoneally daily) to demyelinate axons in the brain and concurrently treated with ozanimod (0.1, 0.3, or 1 mg/kg) or compound (2-S) (1 mg/kg) by daily oral gavage to investigate its neuroprotective activity. Neuroprotection was assessed through examination of axonal pathology in the corpus callosum using SMI-32 (antineurofilament H non-phosphorylated mouse monoclonal antibody) staining, functional assessment through kinematic gait analysis and the plasma biomarker neurofilament light chain (NfL). Further, direct activity of ozanimod was examined in resting and activated primary rodent astrocytes in vitro.

Q: Which results are given for `CC(C)Oc1ccc(-c2nc(-c3cccc4c3CCC4=O)no2)cc1C#N` [Compound 1, 2-isopropoxy-5-(3-(1-oxo-2,3-dihydro-1H-inden-4-yl)-1,2,4-oxadiazol-5-yl)benzonitrile]?
A: MAO-B inhibition (in words) (Recombinant human MAO-B): potent inhibition; IC50 (Recombinant human MAO-B; kynuramine 25 μM, 10 min incubation): 6.6 nM

Q: Which “spinal cord inflammation and demyelination” value [1] does the source give for `CC(C)Oc1ccc(-c2nc(-c3cccc4c3CC[C@@H]4NCCO)no2)cc1C#N` [Ozanimod] here?
A: reduce spinal cord inflammation and demyelination

Q: And the “reduction of microglia expansion in the spinal cord” value ([1]; day 18-21 post-immunization)?
A: 75%

Q: And the “decrease of monocyte infiltration into the spinal cord” value ([1]; oral ozanimod)?
A: 65%

Q: And the “diminished Th1 and Th17 cell expansion in the periphery” value ([1]; oral ozanimod)?
A: 60-70%

Q: What about the “reduction of the number of Th1 and Th17 cells in the spinal cord” value ([1]; oral ozanimod) of the same compound?
A: ≥ 80%

Q: And the “plasma biomarker of CNS injury NfL” value ([1]; therapeutic dosing, at study termination, vehicle 3298±350, p=0.05)?
A: 2209 ± 393 pg/mL

Q: What about the “release of pro-inflammatory cytokines, including IL-1β, TNFα, IL-6, and KC/GRO” value ([2]; induced by LPS activation) of the same compound?
A: attenuated the release of pro-inflammatory cytokines

Q: What about the “ERK and AKT signaling pathways” value ([2]; primary rodent astrocytes) of the same compound?
A: directly activated ERK and AKT signaling pathways
